Measured values taken from patent US20100260772A1, “METHODS FOR TREATING OR PREVENTING DISEASES ASSOCIATED WITH LOW BONE MASS” (THE TRUSTEES OF COLUMBIA UNIVERSITY IN THE CITY OF NEW YORK, priority 2007, published 2010).

Key:
[1] = tested on: Tph2 expression in brainstem; assay: Leptin injection, Tph2 expression in brainstem; format: in vivo, mice
[2] = tested on: neuropeptides Y (Npy), a leptin target gene in arcuate neurons; assay: Leptin injection, Npy expression (internal control); format: in vivo, mice; conditions: same leptin injection
Source text: Next, we injected i.p […] of leptin and studied its effects on Tph2 expression 4 and […]. We also measured the brain concentration of serotonin in leptin knockouts (ob/ob mice). FIG. 5. […] FIG. 15. […] FIG. 5. […] Serotonin neurons in the brain stem have the ObRb receptors that bind to leptin, and they project to the hypothalamus.

[3] = tested on: cfos expression in brain stems; assay: Leptin injection, cfos expression in brain stem; format: in vivo; conditions: following leptin injection
Source text: We know that expression of the leptin receptor ObRb is not restricted to hypothalamic neurons and can be found in particular in serotonin-producing neurons of the brainstem that also express Tph2. […] This latter result means that leptin's first site of action in the brain is not, at least as far as controlling bone mass is concerned, the hypothalamus but rather the brainstem where serotonergic neurons are localized.

“leptin: endogenous polypeptide product of an ob gene” was tested, and the “Tph2 expression in brain stem (in words)” value ([1]; leptin injection (ICV, FIG. 7)) was “decreases Tph2 expression”, the “decrease of Tph2 expression in brainstem” value ([1]; leptin injection i.c.v., FIG. 15) was “approximately 50%” and the “expression of neuropeptides Y (Npy)” value [2] was “decreased”. For the same substance, the “cfos expression in brain stems” value [3] was “increased cfos expression”.
